Measurements published in paper PMC2752443 (2009).

Columns and labels:
[1] = system: theophylline-binding RNA aptamer (RNA, aptamer) GGCGAUACCAGCCGAAAGGCCCUUGGCAGCGUC; test: 2D 1H-1H NMR ZZ-exchange; conditions: no Mg2+; 15 °C; apparent; slope of kf against free theophylline
[2] = system: theophylline-binding RNA aptamer (RNA, aptamer) GGCGAUACCAGCCGAAAGGCCCUUGGCAGCGUC; test: 2D 1H-1H NMR ZZ-exchange, koff/kon; conditions: no Mg2+; 15 °C; from apparent rate constants

SMILES: Cn1c(=O)c2[nH]cnc2n(C)c1=O
- kon [1]: 600 ± 57 M⁻¹ s⁻¹
- Kd [2]: 2500 µM
